Reference: US6730661B1, “Nutritional composition which contain non-digestible polysaccharides and use thereof to reduce transport through tight junctions” (N. V. Nutricia, priority 1999, dated 2004)

Key:
[1] = test system: guinea pig intestinal epithelium; assay: HRP flow over guinea pig intestinal epithelium in Ussing chamber, tight junctions opened by caprate; conditions: in vitro, FIG. 2
Experimental: Use was made of a model set-up for determination of the effect of the polysaccharides used.
A test animal, such as a rat or guinea pig, was brought under narcosis. The stomach wall was then opened and a piece of the ileum tied off. The intestinal tissue was removed and stripped of layers of muscle. The preparation thus obtained was then stretched between two compartments through which oxygenated solutions flowed (FIG. 1). The preparation was treated either with buffer (control or blank) or caprate in buffer in order to open the tight junctions (100% permeability) or with the combination of caprate and a certain concentration of polysaccharide in buffer. As a measure of the permeability the transport of HRP (horseradish peroxidase) over the preparation was determined in accordance with known methods.
The in vitro effect of dextran (70 kD) on the increased HRP flow caused by caprate in a guinea pig intestinal epithelium is shown in FIG. 2.

pig intestine = assay: in situ ischaemia reperfusion model in pigs, HRP flow in jejunum segments; assay type: in vivo; conditions: 5.6 g/l in lumen during ischaemia, pig under full narcosis, caudal jejunum, FIG. 5
Experimental: The figure relates to experiments with a pig under full narcosis, in which segments of the caudal section of the jejunum were taken. The effect of 5.6 g/l dextran (70 kD)(D) in the in situ ischaemia reperfusion model in pigs as a function of the duration of ischaemia was determined in comparison with control (C) where no dextran was introduced into the lumen during ischaemia.

[2] = test system: duodenum biopsies of a child suffering from microvillus inclusion disease (MVID); assay: Permeability to HRP of duodenal suction biopsies of a microvillus inclusion disease patient in Ussing chamber; set-up: species or system human; conditions: after adding 4.2 g/l to luminal compartment
Source text: Suction biopsies were taken from the duodenum of a child suffering from microvillus inclusion disease (MVID).

## dextran [dextran (70 kD)]
[1]
  effect on the increased HRP flow caused by caprate: inhibition of the effects of caprate
Pig intestine
  HRP flow in the pig intestine increased by ischaemia, compared with control: significant fall
[2]
  HRP in the paracellular spaces or tight junctions by electron microscopy: No further HRP could be detected
